Target: V1a (Homo sapiens, UniProt P37288)
Assay: Human vasopression V1a receptor binding assay
Parameters: host or cells: CHO cells (hV1a cell line), whole adherent cells
Conditions: hV1a cell line (CHO); for Ki: Table 18; for IC50: 1 nM 3H-AVP, Table 17, read-out: V1a Binding Affinity (IC50 (nM))
Summary of the method: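 Whole CHO cells stably expressing human V1a receptor competed 1 nM 3H-AVP against 10-fold serial compound dilutions (DMSO) in pH 7.0 Hepes/BSA/DMEM buffer, 45 min at 37° C.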

V1a, sequence (P37288 whole entry): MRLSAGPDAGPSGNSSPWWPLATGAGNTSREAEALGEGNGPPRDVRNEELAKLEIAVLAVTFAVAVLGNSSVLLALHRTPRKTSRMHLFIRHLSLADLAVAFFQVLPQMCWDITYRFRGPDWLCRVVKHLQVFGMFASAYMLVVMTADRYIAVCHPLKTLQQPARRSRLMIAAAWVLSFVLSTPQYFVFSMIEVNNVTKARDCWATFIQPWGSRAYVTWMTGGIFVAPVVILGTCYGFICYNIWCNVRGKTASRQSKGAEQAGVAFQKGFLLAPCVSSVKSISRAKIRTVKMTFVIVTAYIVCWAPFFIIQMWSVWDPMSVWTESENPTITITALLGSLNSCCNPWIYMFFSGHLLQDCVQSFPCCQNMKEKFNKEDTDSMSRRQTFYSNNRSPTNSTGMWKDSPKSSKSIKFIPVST

SMILES	Ki	IC50
O=C(NCc1cccc(C(F)(F)F)c1)[C@H](CCC(=O)N1CCN(CC2CCCCC2)CC1)N1C(=O)[C@@H](N2C(=O)OC[C@@H]2c2ccccc2)[C@H]1/C=C/c1ccccc1 [Example 120]	0.46 nM	–
Cc1ccccc1CNC(=O)[C@H](CCC(=O)N1CCN(C2CCCCC2)CC1)N1C(=O)[C@@H](N2C(=O)OC[C@@H]2c2ccccc2)[C@H]1/C=C/c1ccccc1 [Example 192]	–	< 10 nM
O=C(NCc1cccc(C(F)(F)F)c1F)[C@H](CCC(=O)N1CCN(C2CCCCC2)CC1)N1C(=O)[C@@H](N2C(=O)OC[C@@H]2c2ccccc2)[C@H]1/C=C/c1ccccc1 [Example 180]	–	0.33 nM
O=C(CC[C@@H](C(=O)NCc1cccc(C(F)(F)F)c1)N1C(=O)C(N2C(=O)OC[C@@H]2c2ccccc2)C1/C(F)=C/c1ccccc1)NC1CN2CCC1CC2 (stereo partly drawn) [Example 230F]	–	~100 nM
O=C(NCc1ccncc1)[C@H](CCC(=O)N1CCN(C2CCCCC2)CC1)N1C(=O)[C@@H](N2C(=O)OC[C@@H]2c2ccccc2)[C@H]1/C=C/c1ccccc1 [Example 210]	18.1 nM	29.5 nM
O=C(NC1CCCc2ccccc21)C(CCC(=O)N1CCN(C2CCCCC2)CC1)N1C(=O)C(N2C(=O)OCC2c2ccccc2)C1C=Cc1ccccc1 (single isomer, unassigned) [Example 215]	0.38 nM	0.61 nM
O=C(NCc1cccs1)[C@H](CCC(=O)N1CCN(C2CCCCC2)CC1)N1C(=O)[C@@H](N2C(=O)OC[C@@H]2c2ccccc2)[C@H]1/C=C/c1ccccc1 [Example 213]	0.48 nM	0.78 nM
O=C(NCc1cc(Cl)ccc1Cl)[C@H](CCC(=O)N1CCN(C2CCCCC2)CC1)N1C(=O)[C@@H](N2C(=O)OC[C@@H]2c2ccccc2)[C@H]1/C=C/c1ccccc1 [Example 175]	2.79 nM	4.56 nM
O=C(NCCc1ccccc1)[C@H](CCC(=O)N1CCN(C2CCCCC2)CC1)N1C(=O)[C@@H](N2C(=O)OC[C@@H]2c2ccccc2)[C@H]1/C=C/c1ccccc1 [Example 200]	3.11 nM	5.08 nM
O=C(NCc1ccc(F)c(Cl)c1)[C@H](CCC(=O)N1CCN(C2CCCCC2)CC1)N1C(=O)[C@@H](N2C(=O)OC[C@@H]2c2ccccc2)[C@H]1/C=C/c1ccccc1 [Example 186]	–	< 10 nM
O=C(NCc1cccc(F)c1)[C@H](CCC(=O)N1CCN(C2CCCCC2)CC1)N1C(=O)[C@@H](N2C(=O)OC[C@@H]2c2ccccc2)[C@H]1/C=C/c1ccccc1 [Example 184]	–	< 10 nM
Cc1cc(C)cc(CNC(=O)[C@H](CCC(=O)N2CCN(C3CCCCC3)CC2)N2C(=O)[C@@H](N3C(=O)OC[C@@H]3c3ccccc3)[C@H]2/C=C/c2ccccc2)c1 [Example 199]	–	< 10 nM
COc1ccc(OC)c(CNC(=O)[C@H](CCC(=O)N2CCN(C3CCCCC3)CC2)N2C(=O)[C@@H](N3C(=O)OC[C@@H]3c3ccccc3)[C@H]2/C=C/c2ccccc2)c1 [Example 219]	0.39 nM	0.63 nM
COc1cccc(CNC(=O)[C@H](CCC(=O)N2CCN(C3CCCCC3)CC2)N2C(=O)[C@@H](N3C(=O)OC[C@@H]3c3ccccc3)[C@H]2/C=C/c2ccccc2)c1 [Example 183]	–	< 10 nM
O=C(NCc1cccc(C(F)(F)F)c1)[C@H](CCC(=O)N1CCN(CCC2CCCCC2)CC1)N1C(=O)[C@@H](N2C(=O)OC[C@@H]2c2ccccc2)[C@H]1/C=C/c1ccccc1 [Example 111]	0.82 nM	–
Cc1ccccc1C(C)(C)NC(=O)[C@H](CCC(=O)N1CCN(C2CCCCC2)CC1)N1C(=O)[C@@H](N2C(=O)OC[C@@H]2c2ccccc2)[C@H]1/C=C/c1ccccc1 [Example 221]	–	5.1 nM
O=C(NCc1cccc(C(F)(F)F)c1)[C@H](CCC(=O)N1CCN(Cc2ccccc2)CC1)N1C(=O)[C@@H](N2C(=O)OC[C@@H]2c2ccccc2)[C@H]1/C=C/c1ccccc1 [Example 95]	1.08 nM	–
O=C(NCc1cccc(C(F)(F)F)c1)C(C(=O)NC1CCN(Cc2ccccc2)CC1)N1C(=O)[C@@H](N2C(=O)OC[C@@H]2c2ccccc2)[C@H]1/C=C/c1ccccc1 (mixture of isomers) [Example 39]	13.3 nM	–
COc1ccccc1CNC(=O)[C@H](CCC(=O)N1CCN(C2CCCCC2)CC1)N1C(=O)[C@@H](N2C(=O)OC[C@@H]2c2ccccc2)[C@H]1/C=C/c1ccccc1 [Example 220]	3.26 nM	5.3 nM
O=C(C[C@@H](C(=O)NCc1cccc(C(F)(F)F)c1)N1C(=O)[C@@H](N2C(=O)OC[C@@H]2c2ccccc2)[C@H]1/C=C/c1ccccc1)NC1CCN(Cc2ccccc2)CC1 [Example 63]	1.13 nM	–
O=C(NCc1cccc(C(F)(F)F)c1)[C@@H](CC(=O)N1CCC(CN2CCCCC2)CC1)N1C(=O)[C@@H](N2C(=O)OC[C@@H]2c2ccccc2)[C@H]1/C=C/c1ccccc1 [Example 134G]	3.7 nM	6 nM
CCCCN1CCN(C(=O)CCC(C(=O)NCc2cccc(C(F)(F)F)c2)N2C(=O)C(N3C(=O)OCC3c3ccccc3)C2C=Cc2ccccc2)CC1 (single isomer, unassigned) [Example 103]	0.49 nM	–
O=C(NCc1cccc([N+](=O)[O-])c1)[C@H](CCC(=O)N1CCN(C2CCCCC2)CC1)N1C(=O)[C@@H](N2C(=O)OC[C@@H]2c2ccccc2)[C@H]1/C=C/c1ccccc1 [Example 189]	1.04 nM	1.7 nM
O=C(NCc1cccc(C(F)(F)F)c1)[C@@H](CCC(=O)N1CCN(CCc2ccccc2)CC1)N1C(=O)[C@@H](N2C(=O)OC[C@@H]2c2ccccc2)[C@H]1/C=C/c1ccccc1 [Example 136]	33 nM	–
O=C(NCc1cc(Cl)cc(Cl)c1)[C@H](CCC(=O)N1CCN(C2CCCCC2)CC1)N1C(=O)[C@@H](N2C(=O)OC[C@@H]2c2ccccc2)[C@H]1/C=C/c1ccccc1 [Example 174]	0.89 nM	1.46 nM

Second part, the compound after the results:

Ki	IC50	SMILES
7.2 nM	11.6 nM	O=C(CC[C@@H](C(=O)N[C@@H]1CCCc2ccccc21)N1C(=O)[C@@H](N2C(=O)OC[C@@H]2c2ccccc2)[C@H]1/C=C/c1ccccc1)NCCN1CCCCC1 [Example 221X]
–	~50 nM	O=C(NC1(c2ccc(Cl)cc2)CCCC1)[C@H](CCC(=O)N1CCN(C2CCCCC2)CC1)N1C(=O)[C@@H](N2C(=O)OC[C@@H]2c2ccccc2)[C@H]1/C=C/c1ccccc1 [Example 221AQ]
3.8 nM	–	Cc1ccc(C2(NC(=O)[C@H](CCC(=O)N3CCN(C4CCCCC4)CC3)N3C(=O)[C@@H](N4C(=O)OC[C@@H]4c4ccccc4)[C@H]3/C=C/c3ccccc3)CC2)cc1 [Example 221AP]
11.1 nM	18.1 nM	O=C(NC(CCO)c1ccccc1)[C@H](CCC(=O)N1CCN(C2CCCCC2)CC1)N1C(=O)[C@@H](N2C(=O)OC[C@@H]2c2ccccc2)[C@H]1/C=C/c1ccccc1 (stereo partly drawn) [Example 221Q]
–	~30 nM	O=C(Nc1cccc2c1CCC2)[C@H](CCC(=O)N1CCN(C2CCCCC2)CC1)N1C(=O)[C@@H](N2C(=O)OC[C@@H]2c2ccccc2)[C@H]1/C=C/c1ccccc1 [Example 221AY]
–	< 10 nM	CCCCN1CCN(C(=O)CC[C@@H](C(=O)NCc2cccc(C(F)(F)F)c2)N2C(=O)[C@@H](N3C(=O)OC[C@@H]3c3ccccc3)[C@H]2/C=C/c2ccccc2)CC1 [Example 221AB]
7.4 nM	12 nM	O=C(NC1(c2ccc(F)cc2)CCCC1)[C@H](CCC(=O)N1CCN(C2CCCCC2)CC1)N1C(=O)[C@@H](N2C(=O)OC[C@@H]2c2ccccc2)[C@H]1/C=C/c1ccccc1 [Example 221I]
–	~50 nM	CCN1CCC[C@H]1CNC(=O)CC[C@@H](C(=O)N[C@@H]1CCCc2ccccc21)N1C(=O)[C@@H](N2C(=O)OC[C@@H]2c2ccccc2)[C@H]1/C=C/c1ccccc1 [Example 221AI]
5.1 nM	8.4 nM	O=C(CC[C@@H](C(=O)N1CCc2ccccc2C1)N1C(=O)[C@@H](N2C(=O)OC[C@@H]2c2ccccc2)[C@H]1/C=C/c1ccccc1)N1CCN(C2CCCCC2)CC1 [Example 221O]

Source: patent US9597314B2, “Beta-lactamylalkanoic acids for treating premenstrual disorders” (AZEVAN PHARMACEUTICALS, INC., priority 2005, dated 2017)
